{"source": "paper PMC11822664", "about": "“First‐In‐Human Dose Finding Study of Venadaparib (IDX‐1197), a Potent and Selective PARP Inhibitor, in Patients With Advanced Solid Tumors” (Cancer Medicine, 2025)", "assay": "Plasma pharmacokinetics, noncompartmental analysis (Day 1 and Day 14)", "format": "in vivo, human", "description": "Pharmacokinetic and pharmacodynamic studies were performed during the first cycle of treatment. Plasma samples were analyzed for venadaparib concentration using liquid‐liquid extraction followed by high‐performance liquid chromatography, with detection by mass spectrometry. The plasma concentration–time data were analyzed using noncompartmental analysis (WinNonLin, version 8.0, SAS version 9.4 and R version 3.6.3) to derive pharmacokinetic parameters after the first dose (single‐dose parameters) and after the dose on Day 14 (multiple‐dose parameters). Pharmacodynamic studies were performed by evaluating Poly (ADP‐ribose) in peripheral blood mononuclear cells and quantifying tumor‐tissue lysates using the HT PARP in vivo Pharmacodynamic ELISA Kit II (R&D Systems, 4520‐096‐K).", "key": {"[1]": {"settings": "day 1, Cohort 10: 240 mg once daily continuously, n=3, mean±SD"}, "[2]": {"settings": "day 14, Cohort 1: 2 mg once daily, 2 weeks on 1 week off, n=3, mean±SD"}, "[3]": {"settings": "day 14, Cohort 2: 5 mg once daily, 2 weeks on 1 week off, n=3, mean±SD"}, "[4]": {"settings": "day 14, Cohort 3: 10 mg once daily, 2 weeks on 1 week off, n=3, mean±SD"}, "[5]": {"settings": "day 14, Cohort 4: 20 mg once daily, 2 weeks on 1 week off, n=3, mean±SD"}, "[6]": {"settings": "day 14, Cohort 5: 20 mg once daily continuously, n=3, mean±SD"}, "[7]": {"settings": "day 14, Cohort 6: 40 mg once daily continuously, n=3, mean±SD"}, "[8]": {"settings": "day 14, Cohort 7: 80 mg once daily continuously, n=3, mean±SD"}, "[9]": {"settings": "day 14, Cohort 8: 120 mg once daily continuously, n=3, mean±SD"}, "[10]": {"settings": "day 14, Cohort 9: 160 mg once daily continuously, n=4, mean±SD"}, "[11]": {"settings": "day 14, Cohort 10: 240 mg once daily continuously, n=3, mean±SD"}}}
{"molecule": "O=C(c1cc(Cc2n[nH]c(=O)c3ccccc23)ccc1F)N1CC(CNC2CC2)C1", "note": "[venadaparib, Venadaparib]", "values": [{"measurement": "AUCinf", "setting": "[1]", "value": "37514.17±11745.33 (31.3%) [23968.05-44861.59] h*ug/L"}, {"measurement": "AUClast", "setting": "[1]", "value": "35064.82±10936.96 (31.2%) [22440.89-41684.26] h*ug/L"}, {"measurement": "Cmax", "setting": "[1]", "value": "4243.33±1097.38 (25.9%) [2980.00-4960.00] ng/mL"}, {"measurement": "T1/2β", "setting": "[1]", "value": "5.86±0.27 (4.5%) [5.63-6.15] h"}, {"measurement": "Vz", "setting": "[1]", "value": "58.25±20.01 (34.4%) [45.93-81.34] L"}, {"measurement": "Tmax", "setting": "day 1, Cohort 10: 240 mg once daily continuously, n=3, median (min-max)", "value": "2.03 (1.95-3.87) h"}, {"measurement": "AUCinf,ss", "setting": "[2]", "value": "1736.03±1605.80 (92.5%) [457.71-3538.38] h*ug/L"}, {"measurement": "AUClast,ss", "setting": "[2]", "value": "1364.99±1236.83 (90.6%) [418.50-2764.45] h*ug/L"}, {"measurement": "Cmax,ss", "setting": "[2]", "value": "164.83±158.82 (96.4%) [55.40-347.00] ng/mL"}, {"measurement": "T1/2β", "setting": "[2]", "value": "10.12±3.11 (30.8%) [6.53-12.16] h"}, {"measurement": "Vd,ss", "setting": "[2]", "value": "26.55±15.98 (60.2%) [9.51-41.19] L"}, {"measurement": "Tmax,ss", "setting": "day 14, Cohort 1: 2 mg once daily, 2 weeks on 1 week off, n=3, median (min-max)", "value": "1.95 (0.50-3.00) h"}, {"measurement": "AUCinf,ss", "setting": "[3]", "value": "3471.41±2661.23 (76.7%) [854.73-6175.06] h*ug/L"}, {"measurement": "AUClast,ss", "setting": "[3]", "value": "2104.75±1410.01 (67.0%) [709.76-3529.30] h*ug/L"}, {"measurement": "Cmax,ss", "setting": "[3]", "value": "274.27±162.91 (59.4%) [90.80-402.00] ng/mL"}, {"measurement": "T1/2β", "setting": "[3]", "value": "17.56±7.23 (41.1%) [9.22-21.87] h"}, {"measurement": "Vd,ss", "setting": "[3]", "value": "49.88±26.44 (53.0%) [25.23-77.80] L"}, {"measurement": "Tmax,ss", "setting": "day 14, Cohort 2: 5 mg once daily, 2 weeks on 1 week off, n=3, median (min-max)", "value": "2.92 (2.00-3.00) h"}, {"measurement": "AUCinf,ss", "setting": "[4]", "value": "7870.90±9667.28 (122.8%) [1452.44-18989.55] h*ug/L"}, {"measurement": "AUClast,ss", "setting": "[4]", "value": "4925.17±5146.81 (104.5%) [1287.46-10814.03] h*ug/L"}, {"measurement": "Cmax,ss", "setting": "[4]", "value": "484.00±194.58 (40.2%) [269.00-648.00] ng/mL"}, {"measurement": "T1/2β", "setting": "[4]", "value": "12.01±4.70 (39.1%) [8.11-17.22] h"}, {"measurement": "Vd,ss", "setting": "[4]", "value": "47.43±33.75 (71.2%) [13.09-80.56] L"}, {"measurement": "Tmax,ss", "setting": "day 14, Cohort 3: 10 mg once daily, 2 weeks on 1 week off, n=3, median (min-max)", "value": "1.00 (1.00-6.00) h"}, {"measurement": "AUCinf,ss", "setting": "[5]", "value": "4133.27±1804.89 (43.7%) [2714.79-6164.85] h*ug/L"}, {"measurement": "AUClast,ss", "setting": "[5]", "value": "3664.78±1671.01 (45.6%) [2268.75-5516.31] h*ug/L"}, {"measurement": "Cmax,ss", "setting": "[5]", "value": "462.00±198.65 (43.0%) [240.00-623.00] ng/mL"}, {"measurement": "T1/2β", "setting": "[5]", "value": "8.39±1.33 (15.8%) [7.43-9.91] h"}, {"measurement": "Vd,ss", "setting": "[5]", "value": "68.11±35.43 (52.0%) [34.78-105.328 L"}, {"measurement": "Tmax,ss", "setting": "day 14, Cohort 4: 20 mg once daily, 2 weeks on 1 week off, n=3, median (min-max)", "value": "3.00 (2.08-4.00) h"}, {"measurement": "AUCinf,ss", "setting": "[6]", "value": "19641.86±12129.06 (61.8%) [9377.20-33025.96] h*ug/L"}, {"measurement": "AUClast,ss", "setting": "[6]", "value": "14356.35±8586.68 (59.8%) [7554.53-24004.86] h*ug/L"}, {"measurement": "Cmax,ss", "setting": "[6]", "value": "1372.33±691.19 (50.4%) [867.00-2160.00] ng/mL"}, {"measurement": "T1/2β", "setting": "[6]", "value": "12.95±2.11 (16.3%) [10.89-15.11] h"}, {"measurement": "Vd,ss", "setting": "[6]", "value": "23.71±11.37 (48.0%) [11.24-33.51] L"}, {"measurement": "Tmax,ss", "setting": "day 14, Cohort 5: 20 mg once daily continuously, n=3, median (min-max)", "value": "3.00 (2.00-3.00) h"}, {"measurement": "AUCinf,ss", "setting": "[7]", "value": "20437.84±21732.92 (106.3%) [4443.15-45181.74] h*ug/L"}, {"measurement": "AUClast,ss", "setting": "[7]", "value": "15650.44±15761.44 (100.7%) [4158.86-33618.37] h*ug/L"}, {"measurement": "T1/2β", "setting": "[7]", "value": "10.05±3.49 (34.7%) [6.03-12.16] h"}, {"measurement": "Vd,ss", "setting": "[7]", "value": "50.82±32.01 (63.0%) [15.65-78.27] L"}, {"measurement": "Tmax,ss", "setting": "day 14, Cohort 6: 40 mg once daily continuously, n=3, median (min-max)", "value": "2.00 (2.00-4.00) h"}, {"measurement": "AUCinf,ss", "setting": "[8]", "value": "35855.66±11046.67 (30.8%) [28487.65-48557.05] h*ug/L"}, {"measurement": "AUClast,ss", "setting": "[8]", "value": "29755.39±5857.45 (19.7%) [25647.39-36462.67] h*ug/L"}, {"measurement": "T1/2β", "setting": "[8]", "value": "9.16±2.33 (25.4%) [7.54-11.82] h"}, {"measurement": "Vd,ss", "setting": "[8]", "value": "29.77±1.44 (4.8%) [28.10-30.63] L"}, {"measurement": "Tmax,ss", "setting": "day 14, Cohort 7: 80 mg once daily continuously, n=3, median (min-max)", "value": "0.50 (0.50-3.00) h"}, {"measurement": "AUCinf,ss", "setting": "[9]", "value": "43329.91±51306.71 (118.4%) [9826.55-102396.16] h*ug/L"}, {"measurement": "AUClast,ss", "setting": "[9]", "value": "34807.85±37475.34 (107.7%) [9506.28-77860.52] h*ug/L"}, {"measurement": "Cmax,ss", "setting": "[9]", "value": "3650.00±3170.05 (86.9%) [1370.00-7270.00] ng/mL"}, {"measurement": "T1/2β", "setting": "[9]", "value": "7.15±3.96 (55.4%) [4.86-11.73] h"}, {"measurement": "Vd,ss", "setting": "[9]", "value": "50.97±33.01 (64.8%) [19.83-85.58] L"}, {"measurement": "Tmax,ss", "setting": "day 14, Cohort 8: 120 mg once daily continuously, n=3, median (min-max)", "value": "2.08 (2.00-3.00) h"}, {"measurement": "AUCinf,ss", "setting": "[10]", "value": "64897.81±24747.53 (38.1%) [35388.15-95105.59] h*ug/L"}, {"measurement": "AUClast,ss", "setting": "[10]", "value": "54295.35±20528.36 (37.8%) [31921.97-80064.80] h*ug/L"}, {"measurement": "Cmax,ss", "setting": "[10]", "value": "5860.00±2493.69 (42.6%) [3610.00-8190.00] ng/mL"}, {"measurement": "T1/2β", "setting": "[10]", "value": "9.44±1.74 (18.4%) [7.58-11.70] h"}, {"measurement": "Vd,ss", "setting": "[10]", "value": "37.11±12.87 (34.7%) [21.26-49.44] L"}, {"measurement": "Tmax,ss", "setting": "day 14, Cohort 9: 160 mg once daily continuously, n=4, median (min-max)", "value": "1.50 (1.00-3.02) h"}, {"measurement": "AUCinf,ss", "setting": "[11]", "value": "57242.36±29434.12 (51.4%) [25260.40-83194.93] h*ug/L"}, {"measurement": "AUClast,ss", "setting": "[11]", "value": "51458.84±25578.53 (49.7%) [23517.49-73719.38] h*ug/L"}, {"measurement": "Cmax,ss", "setting": "[11]", "value": "4650.00±1574.20 (33.9%) [2840.00-5700.00] ng/mL"}, {"measurement": "T1/2β", "setting": "[11]", "value": "6.66±0.54 (8.1%) [6.04-7.00] h"}, {"measurement": "Vd,ss", "setting": "[11]", "value": "50.00±28.79 (57.6%) [28.90-82.80] L"}, {"measurement": "Tmax,ss", "setting": "day 14, Cohort 10: 240 mg once daily continuously, n=3, median (min-max)", "value": "3.05 (1.97-4.00) h"}, {"measurement": "mean plasma clearance rate", "setting": "patients", "value": 6.3, "unit": "L per hour"}, {"measurement": "mean volume of distribution", "setting": "patients", "value": 75, "unit": "L"}, {"measurement": "half-life", "setting": "plasma, biphasic decline", "value": "approximately 8.7 h"}]}
